Results as given in patent US9403831B2, “Triazolopyrazine derivative and use thereof” (KOREA RESEARCH INSTITUTE OF CHEMICAL TECHNOLOGY, priority 2013, dated 2016).
Counter-ions that a name gives are not always drawn.

What was measured:
c-Met enzyme = c-Met enzyme (Homo sapiens (Human), UniProt P08581); test: c-Met kinase inhibitory activity (DELFIA time-resolved fluorescence); assay type: biochemical; settings: c-Met kinase activity reduced to 50%
Method: The c-Met kinase inhibitory activity was analyzed using dissociation enhanced lanthanide fluoro-immunoassay (DELFIA, Perkin Elmer), which is a kind of time-resolved fluorescence (TRF). […] of the compound prepared in the present invention, as a test compound, was put in a Greiner 96-well V-shaped bottom plate, and a tyrosin kinase buffer ([…]) mixed with a c-Met enzyme was added thereto, and then the enzyme and the test compound were stirred for 15 minutes, followed by culturing. An ATP solution ([…]) was added thereto to proceed with a kinase reaction at room temperature for 30 minutes, and then a 50 mM […] solution (EDTA, […]) was added to stop the reaction. After that, the reaction mixture was transferred to a plate coated with Streptavidin, followed by culturing under shaking. After 2 hours, the cultured material was washed three times with a PBS-T buffer (PBS 0.05% Tween 20).
The europium-labeled anti-phosphotyrosine antibody was diluted to 1:[…] of the diluent was added per well, followed by culturing under shaking. After 1 hour, the cultured material was washed three times with a PBS-T buffer (PBS 0.05% Tween 20).

[1] = test system: gastric cancer cell line Hs746T; test: Cancer cell proliferation inhibitory test (SRB or MTS assay, 72 hours); assay type: cell-based; settings: Homo sapiens, cancer cell (Hs746T) proliferation inhibition, culturing with compound for 72 hours
Method: The drug used in the test was diluted to a desired concentration as a test medium, and the final concentration of dimethyl sulfoxide was 0.5% or less.
All the cancer cell lines used in the test originated from the human body, and gastric cancer cell lines Hs746T and MKN-45 were used.
5×10^3 cells of Hs746T were dispensed to each well of the 96-well flat bottom micro-plate. MKN-45 was dispensed at 1×10^4 cells. The cells were cultured for 24 hours, so that the cells adhered to the bottom, and then the culture liquid was removed. The culture liquid containing each of the compounds of the present invention was added, followed by culturing for 72 hours. After the culturing with the compound was completed, the cytotoxicity was measured using protein stain reagent SRB or MTS assay.
Specifically, after the culturing with the compound of the present invention was completed, the cultured liquid was removed. Each well was treated with a cool TCA solution, and allowed to stand at 4° C. for 1 hour to fix cells. The TCA solution was removed, followed by drying at room temperature, and then a stain solution containing 0.4% SRB dissolved in 1% acetic acid solution was added, and then the mixture was allowed to stand for 30 minutes to stain cells. […] The absorbance of each well was measured at a wavelength range of 520 nm using an Eliza reader (micro-plate reader).
The drug cytotoxicity was measured from the OD values for the well added without the drug (C), each well added with the drug (T), and the well initially added with the drug (Tz): [(T−Tz)/(C−Tz)]×100 for […]; or [(T−Tz)/(Tz)]×100 for Tz>T.
The cancer cell inhibitory activity measurement using MTS assay was conducted as follows. Specifically, after the culturing with the compound of the present invention was completed, the PMS solution and MTS solution constituting the CellTiter 96® AQueous Non-Radioactive Cell Proliferation Assay product from Promega Co. were mixed, and 20 μL was put into each well. After the cells were placed in an incubator for 4 hours, and then taken out and allowed to stand at room temperature for 10 minutes.

Chain of c-Met enzyme (P08581 25-1390): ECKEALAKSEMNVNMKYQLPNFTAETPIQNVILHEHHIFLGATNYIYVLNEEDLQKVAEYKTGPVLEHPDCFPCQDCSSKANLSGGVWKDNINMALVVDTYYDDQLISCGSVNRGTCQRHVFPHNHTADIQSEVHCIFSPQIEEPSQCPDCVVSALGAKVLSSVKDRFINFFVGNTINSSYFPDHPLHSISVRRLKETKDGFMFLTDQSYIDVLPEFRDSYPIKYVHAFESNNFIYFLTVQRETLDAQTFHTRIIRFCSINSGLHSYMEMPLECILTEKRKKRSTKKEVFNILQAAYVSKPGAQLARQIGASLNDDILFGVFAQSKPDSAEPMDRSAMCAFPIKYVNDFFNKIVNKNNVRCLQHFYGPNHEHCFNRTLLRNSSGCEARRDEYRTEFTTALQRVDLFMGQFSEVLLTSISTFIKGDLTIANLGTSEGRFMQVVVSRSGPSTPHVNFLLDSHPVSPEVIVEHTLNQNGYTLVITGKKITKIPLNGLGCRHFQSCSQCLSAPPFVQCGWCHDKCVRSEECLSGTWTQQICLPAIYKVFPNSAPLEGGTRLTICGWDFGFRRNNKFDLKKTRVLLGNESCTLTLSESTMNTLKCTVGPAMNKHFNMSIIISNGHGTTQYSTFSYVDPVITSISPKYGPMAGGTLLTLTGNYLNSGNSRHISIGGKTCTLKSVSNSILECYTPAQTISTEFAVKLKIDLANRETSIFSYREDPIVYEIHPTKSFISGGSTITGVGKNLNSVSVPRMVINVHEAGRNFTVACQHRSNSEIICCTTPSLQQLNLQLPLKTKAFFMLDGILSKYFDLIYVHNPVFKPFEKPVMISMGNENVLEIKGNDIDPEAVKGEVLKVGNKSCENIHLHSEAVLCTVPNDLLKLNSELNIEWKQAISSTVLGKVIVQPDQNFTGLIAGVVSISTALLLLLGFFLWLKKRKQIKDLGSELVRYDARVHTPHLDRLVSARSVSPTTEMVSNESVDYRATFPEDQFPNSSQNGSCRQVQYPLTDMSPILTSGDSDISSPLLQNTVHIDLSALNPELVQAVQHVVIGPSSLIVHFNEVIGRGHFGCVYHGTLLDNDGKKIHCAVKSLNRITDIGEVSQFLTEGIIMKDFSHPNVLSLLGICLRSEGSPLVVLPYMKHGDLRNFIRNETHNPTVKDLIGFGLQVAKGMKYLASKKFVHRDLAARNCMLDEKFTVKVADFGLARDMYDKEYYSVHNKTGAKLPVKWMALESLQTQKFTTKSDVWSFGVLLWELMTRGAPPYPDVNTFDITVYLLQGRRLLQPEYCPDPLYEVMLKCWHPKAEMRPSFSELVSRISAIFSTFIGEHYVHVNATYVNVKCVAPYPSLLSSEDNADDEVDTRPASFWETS

| IC50 (c-Met enzyme) [nM] | IC50 [1] [nM] | SMILES |
| --- | --- | --- |
| 3 | 0.93 | Cn1cc(-c2cnc3nnn(C[C@@H]4CN(c5ncc(-c6cnn(CCO)c6)cn5)CCO4)c3n2)cn1 [Chemical formula 11, (S)-2-(4-(2-(2-((6-(1-methyl-1H-pyrazol-4-yl)-1H-[1,2,3]triazolo[4,5-b]pyrazin-1-yl)methyl)morpholino)pyrimidin-5-yl)-1H-pyrazol-1-yl)ethanol hydrochloride] |
| 5 | 5.6 | Cn1cc(-c2cnc3nnn(C[C@@H]4CN(c5ncc(C6CCN(CCO)CC6)cn5)CCO4)c3n2)cn1 [Chemical formula 21, (S)-2-(4-(2-(2-((6-(1-methyl-1H-pyrazol-4-yl)-1H-[1,2,3]triazolo[4,5-b]pyrazin-1-yl)methyl)morpholino)pyrimidin-5-yl)piperidin-1-yl)ethanol] |
| 2 | 1.3 | Cn1cc(-c2cnc3nnn(CC4CCCN(c5ncc(-c6cnn(C7CCNCC7)c6)cn5)C4)c3n2)cn1 (stereo not drawn) [Chemical formula 37, 6-(1-methyl-1H-pyrazol-4-yl)-1-((1-(5-(1-(piperidin-4-yl)-1H-pyrazol-3-yl)pyrimidin-2-yl)piperidin-3-yl)methyl)-1H-[1,2,3]triazolo[4,5-b]pyrazinehydrochloride] |
| 4 | 1.1 | CN1CC=C(c2cnc(N3CCO[C@H](Cn4nnc5ncc(-c6cnn(C)c6)nc54)C3)nc2)CC1 [Chemical formula 10, (S)-4-(5-(1-methyl-1,2,3,6-tetrahydropyridin-4-yl)pyrimidin-2-yl)-2-((6-(1-methyl-1H-pyrazol-4-yl)-1H-[1,2,3]triazolo[4,5-b]pyrazin-1-yl)methyl)morpholine] |
| 2 | 0.11 | N#Cc1cc(-c2cnc3nnn(C[C@@H]4CN(c5ncc(C6=CCNCC6)cn5)CCO4)c3n2)ccc1F [Chemical formula 30, (S)-2-fluoro-5-(1-((4-(5-(1,2,3,6-tetrahydropyridin-4-yl)pyrimidin-2-yl)morpholine-2-yl)methyl)-1H-[1,2,3]triazolo[4,5-b]pyrazin-6-yl)benzonitrile] |
| 6 |  | CN1CCN(C(=O)c2ccc(-c3cnc(N4CCC[C@H](Cn5nnc6ncc(-c7cnn(C)c7)nc65)C4)nc3)cc2)CC1 [Chemical formula 48, (S)-(4-(2-(3-((6-(1-methyl-1H-pyrazol-4-yl)-1H-[1,2,3]triazolo[4,5-b]pyrazin-1-yl)methyl)piperidin-1-yl)pyrimidin-5-yl)phenyl)(4-methylpiperazin-1-yl)methanone] |
| 8 |  | CC(=O)N1CCN(Cc2ccc(-c3cnc(N4CCO[C@H](Cn5nnc6ncc(-c7cnn(C)c7)nc65)C4)nc3)cc2)CC1 [Chemical formula 45, (S)-1-(4-(4-(2-(2-((6-(1-methyl-1H-pyrazol-4-yl)-1H-[1,2,3]triazolo[4,5-b]pyrazin-1-yl)methyl)morpholino)pyrimidin-5-yl)benzyl)piperazin-1-yl)ethanone] |
| 3 | 2 | Cn1cc(-c2cnc3nnn(CC4CCCN(c5ncc(C6=CCN(CCO)CC6)cn5)C4)c3n2)cn1 (stereo not drawn) [Chemical formula 35, 2-(4-(2-(3-((6-(1-methyl-1H-pyrazol-4-yl)-1H-[1,2,3]triazolo[4,5-b]pyrazine-1-yl)methyl)piperidin-1-yl)pyrimidin-5-yl)-5,6-dihydropyridin-1(2H)-yl)ethanol] |
| 2 | 3.8 | Cn1cc(-c2cnc3nnn(CC4CCCN(c5ncc(-c6cnn(CCO)c6)cn5)C4)c3n2)cn1 (stereo not drawn) [Chemical formula 36, 2-(3-(2-(3-((6-(1-methyl-1H-pyrazol-4-yl)-1H-[1,2,3]triazolo[4,5-b]pyrazin-1-yl)methyl)piperidin-1-yl)pyrimidin-5-yl)-1H-pyrazol-1-yl)ethanolhydrochloride] |
| 8 |  | CN1CCN(Cc2ccc(-c3cnc(N4CCO[C@H](Cn5nnc6ncc(-c7cccc(C#N)c7)nc65)C4)nc3)cc2)CC1 [Chemical formula 49, (S)-3-(1-((4-(5-(4-((4-methylpiperazin-1-yl)methyl)phenyl)pyrimidin-2-yl)morpholin-2-yl)methyl)-1H-[1,2,3]triazolo[4,5-b]pyrazin-6-yl)benzonitrile] |
| 3 | 15 | CN1CC=C(c2cnc(N3CCCC(Cn4nnc5ncc(-c6cnn(C)c6)nc54)C3)nc2)CC1 (stereo not drawn) [Chemical formula 34, 1-((1-(5-(1-methyl-1,2,3,6-tetrahydropyridin-4-yl)pyrimidin-2-yl)piperidin-3-yl)methyl)-6-(1-methyl-1H-pyrazol-4-yl)-1H-[1,2,3]triazolo[4,5-b]pyrazine] |
| 6 |  | CN1CCN(CCOc2ccc(-c3cnc(N4CCO[C@H](Cn5nnc6ncc(-c7cnn(C)c7)nc65)C4)nc3)cc2)CC1 [Chemical formula 15, (S)-2-((6-(1-methyl-1H-pyrazol-4-yl)-1H-[1,2,3]triazolo[4,5-b]pyrazin-1-yl)methyl)-4-(5-(4-(2-(4-methylpiperazin-1-yl)ethoxy)phenyl)pyrimidin-2-yl)morpholine] |
| 2 |  | CN1CCN(Cc2ccc(-c3cnc(N4CCO[C@H](Cn5nnc6ncc(-c7cnn(C)c7)nc65)C4)nc3)cc2F)CC1 [Chemical formula 40, (S)-4-(5-(3-fluoro-4-((4-methylpiperazin-1-yl)methyl)phenyl)pyrimidin-2-yl)-2-((6-(1-methyl-1H-pyrazol-4-yl)-1H-[1,2,3]triazolo[4,5-b]pyrazin-1-yl)methyl)morpholine] |
| 2 |  | CN1CCN(Cc2ccc(-c3cnc(N4CCO[C@H](Cn5nnc6ncc(-c7ccc(F)c(C#N)c7)nc65)C4)nc3)cc2F)CC1 [Chemical formula 39, (S)-2-fluoro-5-(1-((4-(5-(3-fluoro-4-((4-methylpiperazin-1-yl)methyl)phenyl)pyrimidin-2-yl)morpholine-2-yl)methyl)-1H-[1,2,3]triazolo[4,5-b]pyrazin-6-yl)benzonitrile] |
| 3 |  | N#Cc1cc(-c2cnc3nnn(C[C@@H]4CN(c5ncc(C6=CCN(CCO)CC6)cn5)CCO4)c3n2)ccc1F [Chemical formula 38, (S)-2-fluoro-5-(1-((4-(5-(1-(2-hydroxyethyl)-1,2,3,6-tetrahydropyridin-4-yl)pyrimidin-2-yl)morpholine-2-yl)methyl)-1H-[1,2,3]triazolo[4,5-b]pyrazin-6-yl)benzonitrile] |
|  | 2.1 | Cn1cc(-c2cnc3nnn(C[C@@H]4CN(c5ncc(OCCN6CCOCC6)cn5)CCO4)c3n2)cn1 [Chemical formula 16, (S)-2-((6-(1-methyl-1H-pyrazol-4-yl)-1H-[1,2,3]triazolo[4,5-b]pyrazin-1-yl)methyl)-4-(5-(2-morpholinoethoxy)pyrimidin-2-yl)morpholine] |
| 13 |  | CN1CCN(C(=O)c2ccc(-c3cnc(N4CCO[C@H](Cn5nnc6ncc(-c7cnn(C)c7)nc65)C4)nc3)cc2)CC1 [Chemical formula 47, (S)-(4-(2-(2-((6-(1-methyl-1H-pyrazol-4-yl)-1H-[1,2,3]triazolo[4,5-b]pyrazin-1-yl)methyl)morpholino)pyrimidin-5-yl)phenyl)(4-methylpiperazin-1-yl) methanone] |
| 4 |  | Cn1cc(-c2cnc3nnn(C[C@@H]4CN(c5ncc(-c6ccc(CN7CCOCC7)c(F)c6)cn5)CCO4)c3n2)cn1 [Chemical formula 42, (S)-4-(5-(3-fluoro-4-(morpholinomethyl)phenyl)pyrimidin-2-yl)-2-((6-(1-methyl-1H-pyrazol-4-yl)-1H-[1,2,3]triazolo[4,5-b]pyrazin-1-yl)methyl)morpholine] |

| SMILES | IC50 (c-Met enzyme) [nM] | IC50 [1] [nM] |
| --- | --- | --- |
| Cn1cc(-c2cnc3nnn(C[C@@H]4CN(c5ncc(-c6cnn(C7CCNCC7)c6)cn5)CCO4)c3n2)cn1 [Chemical formula 4, (S)-2-((6-(1-methyl-1H-pyrazol-4-yl)-1H-[1,2,3]triazolo[4,5-b]pyrazin-1-yl)methyl)-4-(5-(1-(piperidin-4-yl)-1H-pyrazol-4-yl)pyrimidin-2-yl)morpholine HCl salt] | 11 | 1.2 |
| Cn1cc(-c2cnc3nnn(C[C@@H]4CN(c5ncc(C6=CCNCC6)cn5)CCO4)c3n2)cn1 [Chemical formula 9, (S)-2-((6-(1-methyl-1H-pyrazol-4-yl)-1H-[1,2,3]triazolo[4,5-b]pyrazin-1-yl)methyl)-4-(5-(1,2,3,6-tetrahydropyridin-4-yl)pyrimidin-2-yl)morpholine hydrochloride] | 3 | 0.95 |
